In ChEMBL document CHEMBL1144919, “Synthesis of novel thrombin inhibitors. Use of ring-closing metathesis reactions for synthesis of P2 cyclopentene- and cyclohexenedicarboxylic acid derivatives” (J Med Chem, 2003):

What follows are compounds tested against Prothrombin (Homo sapiens, UniProt P00734) (assay: In vitro inhibitory concentration of compound against human thrombin).
Compound `CCN(C(=O)C1=CCCC1C(=O)NCc1ccc(C(=N)N)cc1)c1ccccc1C` (stereo not given) has an IC50 of 680 nM. For `N=C(N)c1ccc(CNC(=O)C2CCCC=C2C(=O)Nc2ccccc2)cc1` (stereo not given), the IC50 was 130000 nM. Compound `CCN(C(=O)C1=CCCCC1C(=O)NCc1ccc(C(=N)N)cc1)c1ccccc1` (stereo not given) has an IC50 of 3800 nM. `CCc1cccc(N(CC)C(=O)C2=CCCC2C(=O)NCc2ccc(C(=N)N)cc2)c1` (stereo not given) gave an IC50 of 270 nM. Compound `CCN(C(=O)C1=CCCC1C(=O)NCc1ccc(C(=N)N)cc1)c1cccc(F)c1` (stereo not given) has an IC50 of 630 nM. Compound `CCN(C(=O)C1CCC=C1C(=O)NCc1ccc(C(=N)N)cc1)c1cccc(OC)c1` (stereo not given) has an IC50 of 7800 nM. Work on `Cc1ccccc1N(CC(=O)O)C(=O)C1=C(C(=O)NCc2ccc(C(=N)N)cc2)CCC1` yielded an IC50 of 120000 nM. Work on `COc1ccc(OC)c(N(C(=O)C2=CCCC2C(=O)NCc2ccc(C(=N)N)cc2)C2CCCCC2)c1` (stereo not given) yielded an IC50 of 49 nM. Work on `N=C(N)c1ccc(CNC(=O)C2CCC=C2C(=O)N2CCc3ccccc32)cc1` (stereo not given) yielded an IC50 of 4600 nM. In the case of `N=C(N)c1ccc(CNC(=O)C2=C(C(=O)N3CCc4ccccc43)CCC2)cc1`, the IC50 is reported as > 130000 nM. `CCN(C(=O)C1=CCCCC1C(=O)NCc1ccc(C(=N)N)cc1)c1ccccc1C` (stereo not given) was tested, and the IC50 was 4600 nM. `CCc1cccc(N(C(=O)C2=CCCC2C(=O)NCc2ccc(C(=N)N)cc2)C2CCCCC2)c1` (stereo not given) gave an IC50 of 260 nM. With `CCN(C(=O)C1CCC=C1C(=O)NCc1ccc(C(=N)N)cc1)c1ccccc1` (stereo not given) the IC50 was 16000 nM. In the case of `CCN(C(=O)C1=CCCC1C(=O)NCc1ccc(C(=N)N)cc1)c1ccccc1OC` (stereo not given), the IC50 is reported as 250 nM. `CCN(C(=O)C1=CCCC1C(=O)NCc1ccc(C(=N)N)cc1)c1ccccc1` (stereo not given) showed an IC50 of 970 nM. `CCN(C(=O)C1=C(C(=O)NCc2ccc(C(=N)N)cc2)CCC1)c1ccccc1` gave an IC50 of 28000 nM. With `CCN(C(=O)C1=CCC[C@H]1C(=O)NCc1ccc(C(=N)N)cc1)c1cccc(OC)c1` the IC50 was 120 nM. In the case of `CC1Cc2ccccc2N1C(=O)C1=CCCC1C(=O)NCc1ccc(C(=N)N)cc1` (stereo not given), the IC50 is reported as 3400 nM. In the case of `CCN(C(=O)C1=CCCC1C(=O)NCc1ccc(C(=N)N)cc1)c1cc(Cl)ccc1C` (stereo not given), the IC50 is reported as 220 nM. Work on `CCN(C(=O)C1CCC=C1C(=O)NCc1ccc(C(=N)N)cc1)c1ccccc1F` (stereo not given) yielded an IC50 of 93000 nM. `CCN(C(=O)C1=C(C(=O)NCc2ccc(C(=N)N)cc2)CCC1)c1cc(Cl)ccc1C` gave an IC50 of 23000 nM. With `N=C(N)c1ccc(CNC(=O)C2CCC=C2C(=O)N2CCCCC2)cc1` (stereo not given) the IC50 was 6000 nM. For `N=C(N)c1ccc(CNC(=O)C2CCCC=C2C(=O)NC2CCCCC2)cc1` (stereo not given), the IC50 was > 130000 nM. Compound `N=C(N)c1ccc(CNC(=O)C2=C(C(=O)NC3CCCCC3)CCC2)cc1` has an IC50 of 19000 nM. `N=C(N)c1ccc(CNC(=O)C2CCCC=C2C(=O)N2CCCCC2)cc1` (stereo not given) was tested, and the IC50 was 38000 nM. `Cc1ccccc1N(CC(=O)O)C(=O)C1=CCCC1C(=O)NCc1ccc(C(=N)N)cc1` (stereo not given) showed an IC50 of 1300 nM. `N=C(N)NCCC[C@H](NC(=O)[C@@H]1CCCN1C(=O)C(N)Cc1ccccc1)C(=O)O` (stereo in doubt) gave an IC50 of 0.017 nM. Work on `CCN(C(=O)C1=CCCC1C(=O)NCc1ccc(C(=N)N)cc1)c1ccc(OC)cc1` (stereo not given) yielded an IC50 of 940 nM. `CCN(C(=O)C1=CCCC1C(=O)NCc1ccc(C(=N)N)cc1)c1cc(OC)ccc1OC` (stereo not given) gave an IC50 of 73 nM. `CCN(C(=O)C1=C(C(=O)NCc2ccc(C(=N)N)cc2)CCC1)c1cccc(OC)c1` was tested, and the IC50 was 24000 nM. For `CCN(C(=O)C1=CCCC1C(=O)NCc1ccc(C(=N)N)cc1)c1ccccc1F` (stereo not given), the IC50 was 350 nM. `CCN(C(=O)C1=CCCC1C(=O)NCc1ccc(C(=N)N)cc1)c1cc(OC)cc(OC)c1` (stereo not given) was tested, and the IC50 was 210 nM. `CCN(C(=O)C1=CCCC1C(=O)NCc1ccc(C(=N)N)cc1)c1cccc(Cl)c1` (stereo not given) showed an IC50 of 390 nM. `N=C(N)c1ccc(CNC(=O)C2CCCC=C2C(=O)NCc2ccccc2)cc1` (stereo not given) gave an IC50 of 109000 nM. `CCN(C(=O)C1=CCCC1C(=O)NCc1ccc(C(=N)N)cc1)c1cccc(OC)c1` (stereo not given) was tested, and the IC50 was 240 nM.
